# From PubChem BioAssay AID2060892 (Molecular Pharmacology Branch, DTP, NCI, 2025)
# Test system: HOP-62 complex spheroids with HUVEC/MSC, viability
# Assay: Anticancer human tumor HOP-62 cell line growth inhibition [RAS];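 note: spheroids exposed to agents for seven days before readout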;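 for viability, T/C: 100% = DMSO vehicle control viability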
# Conditions: for IC50: curve of first compound; for viability, T/C: stronger effect = lower value
# Outline: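 Agents were tested in combination matrices in half-log decrements from a top concentration at or near clinical Cmax (10 microM if undetermined). Targets were multi-cell spheroids of tumour lines plus HUVEC and MSC stromal cells.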
smiles,measurement,setting,value
C=CC(=O)Nc1cc(Nc2nccc(-c3cn(C)c4ccccc34)n2)c(OC)cc1N(C)CCN(C)C + C=CC(=O)N1CCN(c2nc(OCC3CCCN3C)nc3c(F)c(-c4nc(N)cc(C)c4C(F)(F)F)c(Cl)cc23)C(C)C1,IC50,second compound 0.00316 µM,628 nM
same,IC50,second compound 0.01 µM,372 nM
same,IC50,second compound 0.0316 µM,131 nM
same,IC50,second compound 0.1 µM,280 nM
same,IC50,second compound 0.316 µM,308 nM
same,IC50,second compound 1 µM,333 nM
same,"viability, T/C","second compound 0.00316 µM, first compound 0.00316 µM",82.4%
same,"viability, T/C","second compound 0.00316 µM, first compound 0.01 µM",74.9%
same,"viability, T/C","second compound 0.00316 µM, first compound 0.0316 µM",72.5%
same,"viability, T/C","second compound 0.00316 µM, first compound 0.1 µM",74.1%
same,"viability, T/C","second compound 0.00316 µM, first compound 0.316 µM",64.1%
same,"viability, T/C","second compound 0.00316 µM, first compound 1 µM",40.5%
same,"viability, T/C","second compound 0.01 µM, first compound 0.00316 µM",74%
same,"viability, T/C","second compound 0.01 µM, first compound 0.01 µM",66.6%
same,"viability, T/C","second compound 0.01 µM, first compound 0.0316 µM",65.7%
same,"viability, T/C","second compound 0.01 µM, first compound 0.1 µM",66.4%
same,"viability, T/C","second compound 0.01 µM, first compound 0.316 µM",52.9%
same,"viability, T/C","second compound 0.01 µM, first compound 1 µM",29.4%
same,"viability, T/C","second compound 0.0316 µM, first compound 0.00316 µM",74.9%
same,"viability, T/C","second compound 0.0316 µM, first compound 0.01 µM",69.9%
same,"viability, T/C","second compound 0.0316 µM, first compound 0.0316 µM",52.6%
same,"viability, T/C","second compound 0.0316 µM, first compound 0.1 µM",51.5%
same,"viability, T/C","second compound 0.0316 µM, first compound 0.316 µM",51.3%
same,"viability, T/C","second compound 0.0316 µM, first compound 1 µM",35.2%
same,"viability, T/C","second compound 0.1 µM, first compound 0.00316 µM",65.7%
same,"viability, T/C","second compound 0.1 µM, first compound 0.01 µM",66.1%
same,"viability, T/C","second compound 0.1 µM, first compound 0.0316 µM",62.7%
same,"viability, T/C","second compound 0.1 µM, first compound 0.1 µM",56.4%
same,"viability, T/C","second compound 0.1 µM, first compound 0.316 µM",50.9%
same,"viability, T/C","second compound 0.1 µM, first compound 1 µM",29.4%
same,"viability, T/C","second compound 0.316 µM, first compound 0.00316 µM",59.2%
same,"viability, T/C","second compound 0.316 µM, first compound 0.01 µM",58.1%
same,"viability, T/C","second compound 0.316 µM, first compound 0.0316 µM",59.2%
same,"viability, T/C","second compound 0.316 µM, first compound 0.1 µM",57.9%
same,"viability, T/C","second compound 0.316 µM, first compound 0.316 µM",48.5%
same,"viability, T/C","second compound 0.316 µM, first compound 1 µM",33.8%
same,"viability, T/C","second compound 1 µM, first compound 0.00316 µM",63.9%
same,"viability, T/C","second compound 1 µM, first compound 0.01 µM",53.5%
same,"viability, T/C","second compound 1 µM, first compound 0.0316 µM",68.9%
same,"viability, T/C","second compound 1 µM, first compound 0.1 µM",56.9%
same,"viability, T/C","second compound 1 µM, first compound 0.316 µM",49.8%
same,"viability, T/C","second compound 1 µM, first compound 1 µM",34.1%
